This note sets out measurements from patent publication US11548888B2, “KRas G12C inhibitors” (Mirati Therapeutics, Inc., priority 2019, dated 2023).

The target of this experiment is T1, KRas G12C (Homo sapiens, UniProt P01116, G12C).
T1 construct: NCI-H358 cells (ATCC CRL-5807) express KRas G12C
T1 sequence (P01116 1-188 isoform P01116-2 G12C): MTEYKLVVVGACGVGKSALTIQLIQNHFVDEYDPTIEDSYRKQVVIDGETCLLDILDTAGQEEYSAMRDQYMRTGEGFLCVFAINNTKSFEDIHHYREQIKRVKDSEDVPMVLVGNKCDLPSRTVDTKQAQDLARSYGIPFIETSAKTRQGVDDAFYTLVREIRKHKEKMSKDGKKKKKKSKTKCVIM
In words: Inhibition of KRas G12C-dependent cell growth: Phospho-ERK in NCI-H358 cells. The experiment is classed as cell-based. Conditions: NCI-H358 cells expressing KRas G12C; Phospho-ERK (Thr202/Tyr204) normalized to GAPDH; 3 hours compound; 4 parameter fit. How it is done: The cellular inhibition of KRAs G12C by exemplary compounds of the present invention was determined by measuring the amount of a downstream marker of KRas activity, phosphorylated ERK (“Phospho-ERK”).
NCI-H358 cells (ATCC CRL-5807) express KRas G12C and were grown in RPMI medium supplemented with 10% fetal bovine serum, penicillin/streptomycin and 10 mM HEPES. Cells were plated in poly-D-Lysine coated 96-well plates at a concentration of 50,000 cells/well and allowed to attach for 8-12 hours. Diluted compounds were then added at a final concentration of 0.5% DMSO. After 3 hours, the medium was removed, 150 μL of 4% formaldehyde was added and the plates were incubated for 20 minutes. The plates were washed with PBS, and permeabilized using 150 μL of ice cold 100% methanol for 10 minutes. Non-specific antibody binding to the plates was blocked using 100 μL Licor Blocking Buffer (Li-Cor Biotechnology, Lincoln Nebr.) for 1 hour at room temperature. Positive control samples and samples lacking cells were parallel processed with test samples as standards.
The amount Phospho-ERK was determined using an antibody specific for the phosphorylated form of ERK and compared to the amount of GAPDH. Primary antibodies used for detection were added as follows: Phospho-ERK (Cell Signaling cs9101) diluted 1:500 and GAPDH (Millipore MAB374) diluted 1:5000 in Licor block+0.05% Tween 20. The plates were incubated for 2 hours at room temperature. The plates were washed with PBS+0.05% Tween 20.
Secondary antibodies used to visualize primary antibodies were added as follows: Anti-rabbit-680 diluted 1:1000 and Anti-mouse-800 diluted 1:1000 in Licor Block+0.05% Tween 20 and incubated for 1 hour at room temperature. The plates were washed with PBS+0.05% Tween 20. A 100 μL aliquot of PBS was added to each well and the plates were read on a LICOR AERIUS plate reader.
The pERK(Thr202/Tyr204) signal was normalized with the GAPDH signal and percent of DMSO control values were calculated. IC50 values were generated using a 4 parameter fit of the dose response curve.
In turn, `C=CC(=O)N1CCN(c2ncnc3cc(-c4c(O)cccc4F)ncc23)CC1` [Example 3, 1-(4-(7-(2-fluoro-6-hydroxyphenyl)pyrido[4,3-d]pyrimidin-4-yl)piperazin-1-yl)prop-2-en-1-one] had a half-maximal inhibitory concentration (IC50) of 16000 nM. This counts as double-digit micromolar.

For `C=CC(=O)N1CCN(c2ncnc3c(F)c(-c4c(Cl)c(C)cc5[nH]ncc45)ncc23)C[C@@H]1CC#N` [Example 242], the IC50 was determined as 187 nM.

As to `C=C(F)C(=O)N1CCN(c2nc(OC[C@@H]3CCCN3C)nc3c(F)c(-c4cccc5cccc(Cl)c45)ncc23)C[C@@H]1CC#N` [Example 18, 2-((S)-4-(7-(8-chloronaphthalen-1-yl)-8-fluoro-2-(((S)-1-methylpyrrolidin-2-yl)methoxy)pyrido[4,3-d]pyrimidin-4-yl)-1-(2-fluoroacryloyl)piperazin-2-yl)acetonitrile], inhibition was half-maximal at 50 nM (IC50).

For the molecule `C=CC(=O)N1CCN(c2nc(OC[C@@H]3CCCN3C)nc3c(F)c(-c4cccc5ccc(F)c(Cl)c45)ncc23)CC1CF` (stereo partly drawn) [Example 164], the IC50 worked out at 153 nM. This IC50 lies about 3.1-fold higher than the previous one.

In the case of `C=CC(=O)N1CCN(c2nc(C(F)F)nc3c(F)c(-c4cccc5ccc(F)c(Cl)c45)ncc23)C[C@@H]1CC#N` [Example 237], inhibition was half-maximal at 230 nM (IC50).

For `C=C(F)C(=O)N1CCN(c2nc(N3CC(N(C)C)C3)nc3c(F)c(-c4cccc5cccc(Cl)c45)ncc23)C[C@@H]1CC#N` [Example 91], inhibition was half-maximal at 29 nM (IC50).

With `C=CC(=O)N1CC[C@@H]2[C@H]1CN2c1ncnc2c(F)c(-c3cc(O)cc4cccc(Cl)c34)ncc12` [Example 288, 1-((1R,5R)-6-(7-(8-chloro-3-hydroxynaphthalen-1-yl)-8-fluoropyrido[4,3-d]pyrimidin-4-yl)-2,6-diazabicyclo[3.2.0]heptan-2-yl)prop-2-en-1-one], the IC50 was 15 nM. Compared with the last molecule, the IC50 is about 1.9-fold lower.

`C=C(F)C(=O)N1CCN(c2nc(OCC34CCCN3CCC4)nc3c(F)c(-c4cccc5cccc(Cl)c45)ncc23)C[C@@H]1CC#N` [Example 77] displayed an IC50 of 2 nM.

For the molecule `C=CC(=O)N1CCN(c2ncnc3c(F)c(-c4cccc5ccc(F)c(Cl)c45)ncc23)CC1C#N` (stereo not drawn) [Example 135], the IC50 is 6050 nM.

For the molecule `C=C(F)C(=O)N1CCN(c2nc(OCC3CN(C)C3)nc3c(F)c(-c4cccc5ccc(F)c(Cl)c45)ncc23)C[C@@H]1CC#N` [Example 127], the IC50 was 243 nM. Against the preceding molecule, the IC50 is about 25-fold lower.

For the molecule `C=C(F)C(=O)N1CCN(c2nc(OC[C@@H]3C[C@H](F)CN3C)nc3c(F)c(-c4cccc5ccc(F)c(Cl)c45)ncc23)C[C@@H]1CC#N` [Example 166], the IC50 amounted to 26 nM.

Consider `C=C(F)C(=O)N1CCN(c2nc(OCC34CCCN3CCOC4)nc3c(F)c(-c4cccc5ccc(F)c(Cl)c45)ncc23)C[C@@H]1CC#N` (stereo partly drawn) [Example 144], for which the IC50 was 35 nM.

In the case of `C=C(F)C(=O)N1CCN(c2nc(OCCCN3C[C@@H]4C[C@H]3CO4)nc3c(F)c(-c4cncc5cccc(Cl)c45)ncc23)C[C@@H]1CC#N` [Example 37, 2-[(2S)-4-[7-(5-chloro-4-isoquinolyl)-8-fluoro-2-[3-[(1S,4S)-2-oxa-5-azabicyclo[2.2.1]heptan-5-yl]propoxy]pyrido[4,3-d]pyrimidin-4-yl]-1-(2-fluoroprop-2-enoyl)piperazin-2-yl]acetonitrile], the IC50 stood at 168 nM.

On to `C=CC(=O)N1CCN(c2ncnc3c(F)c(-c4cc(Cl)cc5ccccc45)ncc23)CC1` [Example 255], for which 10000 nM corresponded to half-maximal inhibition (IC50).

`C=C(F)C(=O)N1CCN(c2nc(OCCN(C)C)nc3c(F)c(-c4cccc5cccc(Cl)c45)ncc23)C[C@@H]1CC#N` [Example 68] had an IC50 of 86 nM.

In turn, `C=CC(=O)N1CC2CC1CN2c1nc(OC[C@@H]2CCCN2C)nc2c(F)c(-c3cncc4cccc(Cl)c34)ncc12` (stereo partly drawn) [Example 98] had an IC50 of 10000 nM.

As for `N#CC[C@H]1CN(c2ncnc3c(F)c(-c4cccc5ccc(F)c(Cl)c45)ncc23)CCN1C(=O)/C=C/CF` [Example 112], inhibition was half-maximal at 218 nM (IC50).

`CN1CCC[C@H]1COc1nc(N2CCN(C(=O)/C=C/CF)[C@@H](CC#N)C2)c2cnc(-c3cccc4cccc(Cl)c34)c(F)c2n1` [Example 23, 2-((S)-4-(7-(8-chloronaphthalen-1-yl)-8-fluoro-2-(((S)-1-methylpyrrolidin-2-yl)methoxy)pyrido[4,3-d]pyrimidin-4-yl)-1-((E)-4-fluorobut-2-enoyl)piperazin-2-yl)acetonitrile] showed an IC50 of 18 nM. Against the preceding molecule, the IC50 is about 12-fold lower.

Molecule `C=CC(=O)N1CCN(c2ncnc3c(F)c(-c4c(C)c(C)cc5[nH]ncc45)ncc23)CC1` [Example 198] yielded an IC50 of 8000 nM.

Regarding `C=C(F)C(=O)N1CCN(c2nc(OC[C@@H]3C[C@@H](F)CN3C(C)C)nc3c(F)c(-c4cccc5ccc(F)c(Cl)c45)ncc23)C[C@@H]1CC#N` [Example 116], inhibition was half-maximal at 31 nM (IC50).

As to `C=C(F)C(=O)N1CCN(c2nc(OCC3CCC4(CO)CCCN34)nc3c(F)c(-c4cccc5ccc(F)c(Cl)c45)ncc23)C[C@@H]1CC#N` (stereo partly drawn) [Example 217, 2-((2S)-4-(7-(8-chloro-7-fluoronaphthalen-1-yl)-8-fluoro-2-((7a-(hydroxymethyl)hexahydro-1H-pyrrolizin-3-yl)methoxy)pyrido[4,3-d]pyrimidin-4-yl)-1-(2-fluoroacryloyl)piperazin-2-yl)acetonitrile], the IC50 came to 11 nM.

For `C=C(F)C(=O)N1CCN(c2nc(OC[C@@H]3CCCN3C)nc3c(F)c(-c4cccc5ccc(F)c(Cl)c45)ncc23)C[C@@H]1CC#N` [Example 92], the IC50 was 11 nM.

`COC/C=C/C(=O)N1CCN(c2nc(OC[C@@H]3C[C@@H](OC)CN3C)nc3c(F)c(-c4cccc5cccc(Cl)c45)ncc23)C[C@@H]1CC#N` [Example 62, 2-((S)-4-(7-(8-chloronaphthalen-1-yl)-8-fluoro-2-(((2S,4R)-4-methoxy-1-methylpyrrolidin-2-yl)methoxy)pyrido[4,3-d]pyrimidin-4-yl)-1-((E)-4-methoxybut-2-enoyl)piperazin-2-yl)acetonitrile] registered a concentration for half-maximal inhibition (IC50) of 18 nM.

`C=CC(=O)N1CC[C@@H]2[C@H]1CN2c1nc(NC)nc2c(F)c(-c3cccc4ccc(F)c(Cl)c34)ncc12` [Example 271]: half-maximal inhibition (IC50) required 1070 nM.

For the molecule `C#Cc1cccc2cc(O)cc(-c3ncc4c(N5C[C@@H]6[C@H]5CCN6C(=O)C=C)ncnc4c3F)c12` [Example 291, 1-((1R,5R)-6-(7-(8-ethynyl-3-hydroxynaphthalen-1-yl)-8-fluoropyrido[4,3-d]pyrimidin-4-yl)-2,6-diazabicyclo[3.2.0]heptan-2-yl)prop-2-en-1-one], inhibition was half-maximal at 2 nM (IC50). This IC50 is about 540-fold lower than that of the molecule before.

`Cc1cccc2cccc(-c3ncc4c(N5CCN(C(=O)/C=C/CF)[C@@H](CC#N)C5)nc(OC[C@@H]5C[C@@H](F)CN5C)nc4c3F)c12` [Example 17, 2-[(2S)-1-[(E)-4-fluorobut-2-enoyl]-4-[8-fluoro-2-[[(2S,4R)-4-fluoro-1-methyl-pyrrolidin-2-yl]methoxy]-7-(8-methyl-1-naphthyl)pyrido[4,3-d]pyrimidin-4-yl]piperazin-2-yl]acetonitrile] had an IC50 of 59 nM.

For `C=CC(=O)N1CCN(c2nc(OC[C@@H]3CCCN3C)nc3c(F)c(-c4cccc5ccc(F)c(Cl)c45)ncc23)CC1C(F)(F)F` (stereo partly drawn) [Example 163], the IC50 came to 110 nM. This IC50 is about 1.9-fold higher than that of the molecule before.

Molecule `C=CC(=O)N1CCN(c2nc(OC[C@@H]3CCCN3C)nc3c(F)c(-c4nc(N)ccc4Cl)ncc23)CC1` [Example 103] came in with an IC50 of 10000 nM.

Molecule `C=CC(=O)N1CCN(c2nc(OC[C@@H]3CCCN3C)nc3c(F)c(-c4cccc5ccc(F)c(Cl)c45)ncc23)CC1` [Example 171] registered a concentration for half-maximal inhibition (IC50) of 22 nM.

`C=C(F)C(=O)N1CCN(c2nc(O[C@H](C)CN(C)C)nc3c(F)c(-c4cccc5cccc(Cl)c45)ncc23)C[C@@H]1CC#N` [Example 73] gave an IC50 of 593 nM.

`C=C(F)C(=O)N1CCN(c2nc(OC[C@@H]3CCCN3C)nc3c(F)c(-c4cccc5ccc(F)c(F)c45)ncc23)C[C@@H]1CC#N` [Example 157] gave an IC50 of 23 nM.

Molecule `Cc1cccc2cccc(-c3ncc4c(N5CCN(C(=O)/C=C/CF)[C@@H](CC#N)C5)nc(OCCCN5C[C@@H]6C[C@H]5CO6)nc4c3F)c12` [Example 30, 2-[(2S)-1-[(E)-4-fluorobut-2-enoyl]-4-[8-fluoro-7-(8-methyl-1-naphthyl)-2-[3-[(1S,4S)-2-oxa-5-azabicyclo[2.2.1]heptan-5-yl]propoxy]pyrido[4,3-d]pyrimidin-4-yl]piperazin-2-yl]acetonitrile] had an IC50 of 131 nM.

For `CC#CC(=O)N1CCN(c2ncnc3c(F)c(-c4cccc5ccc(F)c(Cl)c45)ncc23)CC1` [Example 201], the IC50 was found to be 10000 nM.

Broadly, the IC50 is the concentration needed to halve the response being measured. Low readings indicate greater potency, high ones weaker potency.
